Each structure is given as a SMILES string.

One data set has as its system GLP-1 receptor. Description: ELISA assay of secreted GLP-1 forms (mSTC-1 GLP-1 sec CRC). The format is cell-based. Particulars: mSTC-1 cells, GLP-1 secretion, concentration-response curve, ELISA readout, FIG. 1; read-out: action as a GLP-1 receptor agonist (mSTC-1 GLP-1 sec CRC). As to the method: The biological activity of the synthesised compounds was measured with an ELISA assay.
The biological activity of the compound (5S*,9R*)-9-phenyl-3-phenylacetyl-4-oxa-1,3-diazabicyclo[3.3.1]non-6-ene (Ib) as a GLP-1 receptor agonist was measured via an ELISA assay specifically modified in order to identify the forms of GLP-1 secreted.

Regarding `O=C(Cc1ccccc1)N1CN2CC=C[C@H](O1)[C@H]2c1ccccc1` (relative stereo) [Ib, (5S*,9R*)-9-phenyl-3-phenylacetyl-4-oxa-1,3-diazabicyclo[3.3.1]non-6-ene], the melting point lay in the range of 156 to 159 °C. The EC50 in the data set on GLP-1 receptor was determined as 11 µM.

With `CC[C@@H]1[C@@H]2C=CCN1CN(C(=O)Cc1ccccc1)O2` (relative stereo) [If, (5S*,9R*)-9-ethyl-3-phenylacetyl-4-oxa-1,3-diazabicyclo[3.3.1]non-6-ene], the melting point was in the range of 68 to 70 °C.

(Values after patent publication US10913751B2, “1,3-diazo-4-oxa-[3.3.1]-bicyclic derivatives, process for their manufacture and their use as a medicament, in particular for treating diabetes” (UNIVERSITA' DI PISA, priority 2017, dated 2021).)
